Measured values as given in patent publication US4668690A, “1,2,3,4,4a,9b-hexahydro-4a-aminoalkyldibenzofurans useful as analgesics, anticonvulsants or antidepressants” (Hoechst Roussel Pharmaceuticals Inc., priority 1985, dated 1987).
Structures can show the parent of a compound that is named as a salt. Where two headings read alike, the source gives them in different places.

Legend:
[1] = test system: phenyl-para-quinone induced writhing; assay: phenyl-para-quinone writhing assay in mice (analgesia); assay type: in vivo; settings: for inhibition in vivo at 25 mg/kg: 25 mg/kg subcutaneous; for ED50: read-out: ED50, inhibition of phenyl-para-quinone induced writhing
Source text: The compounds of the invention are primarily useful as analgesic, anticonvulsant and antidepressant agents. […] Exptl. Biol. Med., 95, 729 (1953)]. Listed below in Table I is the analgesic effect of some of the compounds of the invention, expressed as percent inhibition of phenyl-para-quinone induced writhing.

[2] = test system: supra maximal electroshock (extensor tonus); assay: supra maximal electroshock assay (anticonvulsant); assay type: in vivo, male mice (Charles River, CD-1); settings: for ED50: Mus musculus, sc, read-out: ED50, anticonvulsant effect (supra maximal electroshock)
[3] = test system: ptosis of tetrabenazine-induced depression; assay: inhibition of tetrabenazine-induced depression (ptosis) in mice (antidepressant); assay type: in vivo
[4] = Mus musculus, sc, subcutaneous, mice, 50% inhibition
[5] = subcutaneous, mice, 50% inhibition

With CN(CCCOc1ccccc1)CC[C@@]12CCCC[C@@H]1c1ccccc1O2 (relative stereo) [Cis-1,2,3,4,4a,9b-hexahydro-4a-[2-{N-methyl-N-(3-phenoxypropyl)}aminoethyl]dibenzofuran oxalate] the inhibition in vivo at 25 mg/kg ([1]; Mus musculus, sc, mice) was 65%.

CN(C)C[C@@]12CCCC[C@@H]1c1ccccc1O2.Cl (relative stereo) [Cis-1,2,3,4,4a,9b-hexahydro-4a-dimethylaminomethyldibenzofuran hydrochloride] showed an ED50 [1, 4] of 21.7 mg/kg.

CNCC[C@@]12CCCC[C@@H]1c1ccccc1O2.Cl (relative stereo) [cis-1,2,3,4,4a,9b-Hexahydro-4a-(2-methylaminoethyl)dibenzofuran hydrochloride] was tested, and the ED50 ([1]; Mus musculus, sc) was 16.2 mg/kg, the ED50 [2] was 41.7 mg/kg and the “% Inhibition of the ptosis of tetrabenazine-induced depression” value ([3]; 20.0 mg/kg intraperitoneal) was 60%.

With CNCCC[C@@]12CCCC[C@@H]1c1ccccc1O2 (relative stereo) [cis-1,2,3,4,4a,9b-Hexahydro-4a-(3-methylaminopropyl)dibenzofuran] the inhibition in vivo at 25 mg/kg ([1]; Mus musculus, sc, mice) was 58%, the ED50 [2, 5] was 27.7 mg/kg and the ED50 ([3]; Mus musculus, ip, intraperitoneal, 50% inhibition) was 5.9 mg/kg.

In the case of CC(C)=CCN(C)CC[C@@]12CCCC[C@@H]1c1ccccc1O2 (relative stereo) [cis-1,2,3,4,4a,9b-Hexahydro-4a-[2-(N-(3-methyl-2-butenyl)-N-methyl)aminoethyl]dibenzofuran oxalate], the “% Inhibition of the ptosis of tetrabenazine-induced depression” value ([3]; 20.0 mg/kg intraperitoneal) is reported as 77%.

In the case of CN(CCc1ccccc1)CC[C@@]12CCCC[C@@H]1c1ccccc1O2 (relative stereo) [cis-1,2,3,4,4a,9b-Hexahydro-4a-[2-(N-methyl-N-phenethyl)aminoethyl]dibenzofuran hydrochloride], the inhibition in vivo at 25 mg/kg ([1]; Mus musculus, sc, mice) is reported as 63%.

CN(CCCc1ccccc1)CCC[C@@]12CCCC[C@@H]1c1ccccc1O2 (relative stereo) [cis-1,2,3,4,4a,9b-Hexahydro-4a-[3-(N-(3-phenylpropyl)-N-methyl)aminopropyl]dibenzofuran oxalate hydrate] showed an inhibition in vivo at 25 mg/kg ([1]; Mus musculus, sc, mice) of 37%.

Compound CN(CCC[C@@]12CCCC[C@@H]1c1ccccc1O2)Cc1ccco1 (relative stereo) [cis-1,2,3,4,4a,9b-Hexahydro-4a-[3-(N-methyl-N-furfuryl)aminopropyl]dibenzofuran oxalate hydrate] has an inhibition in vivo at 25 mg/kg ([1]; Mus musculus, sc, mice) of 61%.

For CN(CCC[C@@]12CCCC[C@@H]1c1ccccc1O2)CCc1ccccc1.Cl (relative stereo) [cis-1,2,3,4,4a,9b-Hexahydro-4a-[3-(N-methyl-N-phenethylamino)propyl]dibenzofuran hydrochloride], the ED50 [1, 4] was 20.8 mg/kg and the “% Inhibition, anticonvulsant effect (supra maximal electroshock)” value (shortened to “% Inhibition, anticonvulsant effect”) ([2]; 25 mg/kg subcutaneous, mice) was 50%.

CNC[C@@]12CCCC[C@@H]1c1ccccc1O2.Cl (relative stereo) [cis-1,2,3,4,4a,9b-Hexahydro-4a-methylaminomethyldibenzofuran hydrochloride] was tested, and the ED50 [1, 4] was 25.8 mg/kg and the ED50 [2, 5] was 22.5 mg/kg.

For c1ccc2c(c1)O[C@]1(CCCN3CCCCC3)CCCC[C@H]21 (relative stereo) [cis-1,2,3,4,4a,9b-hexahydro-4a-(3-piperidinopropyl)dibenzofuran oxalate], the inhibition in vivo at 25 mg/kg ([1]; Mus musculus, sc, mice) was 64%.

With CN(C)CC[C@@]12CCCC[C@@H]1c1ccccc1O2.Cl (relative stereo) [cis-4a-(2-Dimethylaminoethyl)-1,2,3,4,4a,9b-Hexahydrodibenzofuran hydrochloride] the inhibition in vivo at 25 mg/kg ([1]; Mus musculus, sc, mice) was 67%, the ED50 [2, 5] was 22.4 mg/kg and the “% Inhibition of the ptosis of tetrabenazine-induced depression” value ([3]; 20.0 mg/kg intraperitoneal) was 70%.

CN(C)CCC[C@@]12CCCC[C@@H]1c1ccccc1O2.Cl (relative stereo) [cis-4a-(Dimethylaminopropyl)-1,2,3,4,4a,9b-hexahydrodibenzofuran hydrochloride] showed an ED50 [1, 4] of 12.2 mg/kg and an ED50 [2, 5] of 28.1 mg/kg.

With CN(C)CCC=C1c2ccccc2CCc2ccccc21 [Amitriptyline, reference compound] the “% Inhibition of the ptosis of tetrabenazine-induced depression” value ([3]; 2.0 mg/kg intraperitoneal, standard) was 50%.

For CNC1=Nc2ccc(Cl)cc2C(c2ccccc2)=[N+]([O-])C1 [Chlorodiazepoxide, reference compound], the “% Inhibition, anticonvulsant effect” value ([2]; 8.0 mg/kg subcutaneous, mice, standard) was 50%.

For CN1C(=O)CN=C(c2ccccc2)c2cc(Cl)ccc21 [Diazepam, reference compound], the “% Inhibition, anticonvulsant effect” value ([2]; 1.7 mg/kg subcutaneous, mice, standard) was 50%.

For CCC(=O)O[C@](Cc1ccccc1)(c1ccccc1)[C@H](C)CN(C)C [propoxyphene, reference compound], the inhibition in vivo at 3.9 mg/kg ([1]; Mus musculus, sc, read-out: % Inhibition of phenyl-para-quinone induced writhing) was 50%.

With “cis-1,2,3,4,4a,9b-Hexahydro-4a-[2-[N-(3-phenylpropyl)-N-methylamino]ethyl]dibenzofuran oxalate hemihydrate” the “ED50, inhibition of phenyl-para-quinone induced writhing” value [1, 5] was 7.3 mg/kg.
